In patent publication US20150342954A1, “2-BENZYL, 3-(PYRIMIDIN-2-YL) SUBSTITUTED PYRAZOLES USEFUL AS SGC STIMULATORS” (IRONWOOD PHARMACEUTICALS, INC., priority 2011, published 2015):
Read-outs that look alike come from different tables or passages of the source.

Target: T1, soluble guanylate cyclase (sGC) (Homo sapiens, UniProt Q02108+Q02153)
T1 construct: endogenously expressing soluble guanylate cyclase (sGC); endogenous in cells; host or cells: HEK293
T1 sequence (Q02153 1-619): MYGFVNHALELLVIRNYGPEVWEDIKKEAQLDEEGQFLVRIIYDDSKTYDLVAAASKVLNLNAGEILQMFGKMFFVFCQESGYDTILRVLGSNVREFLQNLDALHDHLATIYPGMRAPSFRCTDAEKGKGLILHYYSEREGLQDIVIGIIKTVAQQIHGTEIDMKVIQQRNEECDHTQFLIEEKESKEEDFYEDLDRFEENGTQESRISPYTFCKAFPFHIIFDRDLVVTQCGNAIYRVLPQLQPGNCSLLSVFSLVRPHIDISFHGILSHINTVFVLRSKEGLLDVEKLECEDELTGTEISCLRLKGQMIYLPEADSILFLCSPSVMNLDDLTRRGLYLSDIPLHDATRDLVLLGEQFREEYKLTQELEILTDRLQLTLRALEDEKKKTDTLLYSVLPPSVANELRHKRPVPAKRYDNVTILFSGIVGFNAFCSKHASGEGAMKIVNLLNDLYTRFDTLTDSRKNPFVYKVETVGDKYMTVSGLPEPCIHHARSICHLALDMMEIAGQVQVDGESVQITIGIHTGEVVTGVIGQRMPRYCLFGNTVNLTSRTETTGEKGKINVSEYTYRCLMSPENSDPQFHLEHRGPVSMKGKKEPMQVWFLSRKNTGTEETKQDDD
T1 sequence (Q02108 1-690): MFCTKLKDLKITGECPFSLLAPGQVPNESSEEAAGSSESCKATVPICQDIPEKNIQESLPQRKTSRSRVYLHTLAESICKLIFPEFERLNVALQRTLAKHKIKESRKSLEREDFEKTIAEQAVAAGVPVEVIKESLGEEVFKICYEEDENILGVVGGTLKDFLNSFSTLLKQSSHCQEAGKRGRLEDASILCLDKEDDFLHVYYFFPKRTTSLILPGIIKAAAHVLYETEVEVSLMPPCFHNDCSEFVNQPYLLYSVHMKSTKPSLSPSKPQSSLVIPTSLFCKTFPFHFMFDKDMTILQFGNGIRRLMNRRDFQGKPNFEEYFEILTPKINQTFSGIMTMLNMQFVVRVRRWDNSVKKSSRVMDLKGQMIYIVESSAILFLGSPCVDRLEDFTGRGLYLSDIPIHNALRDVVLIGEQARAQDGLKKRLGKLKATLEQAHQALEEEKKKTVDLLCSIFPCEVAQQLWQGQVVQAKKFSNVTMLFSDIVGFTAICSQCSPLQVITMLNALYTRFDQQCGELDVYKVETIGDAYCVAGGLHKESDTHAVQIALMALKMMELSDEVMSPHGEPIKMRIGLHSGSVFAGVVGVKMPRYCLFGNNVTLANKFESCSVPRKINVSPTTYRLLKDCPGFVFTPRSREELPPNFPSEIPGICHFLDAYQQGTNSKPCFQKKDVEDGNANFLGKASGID
Assay: sGC-HEK-cGMP assay (run with SNP incubation)
Assay type: cell-based
Conditions: for Emax: Table 3A, 10 μM SNP, 100% = 30 μM BAY 41-2272 with 10 μM SNP, read-out: HEK assay Emax-unconstrained (Percent); for HEK MEC-10: concentration that would elicit 10% of the Emax in the presence of 10 μM SNP; for HEK MEC-10 / EC50: Table 3D; for EC50: in the presence of 10 μM SNP
Method: Biological Activity Measurement by the sGC-HEK-cGMP Assay
(Assay Run with SNP Incubation)
Human embryonic kidney cells (HEK293), endogenously expressing soluble guanylate cyclase (sGC), were used to evaluate the activity of test compounds. Compounds stimulating the sGC receptor should cause an increase in the intracellular concentration of cGMP. HEK 293 cells were seeded in Dulbecco's Modification of Eagle's Medium supplemented with fetal bovine serum (10% final) and L-glutamine (2 mM final) in a 2004 volume at a density of 1×10^5 cells/well in a poly-D-lysine coated 96 well flat bottom plate and grown overnight at 37° C. Medium was aspirated and cells were washed with 1× Hank's Buffered Saline Salt Solution (2004). Cells were then incubated for 15 minutes at 37° C. with 0.5 mM 3-isobutyl-1-methylxanthine (2004). Test article and sodium nitroprusside were then added to the assay mixture (24 each) and incubated at 37° C. for 10 minutes. After the 10 minute incubation, the assay mixture was aspirated and 0.1M HCl (2004) was added to the cells. The plate was incubated at 4° C. for 30 minutes in the 0.1M HCl to stop the reaction and lysed the cells. The plates were then centrifuged at 1,200 g for 5 minutes at room temperature. Supernatants were collected and transferred to a new flat bottom 96 well plate for analysis. Vehicle controls were carried out using DMSO (1%). A known sGC stimulator, BAY 41-2272, was used as the positive control. Samples were diluted with an equal volume of 1 M Ammonium Acetate (pH 7) to neutralize samples for better chromatography. A 2×cGMP standard curve was prepared in 0.1 M HCl and then diluted with an equal volume of 1 M Ammonium Acetate, with the following final concentrations in nM: 1024, 512, 256, 128, 64, 32, 16, 8, 4, 2, 1.cGMP concentrations were determined from each sample using the LC/MS conditions (Table 2 below) and calculated standard curve. EC50 values were calculated from concentration-response curves generated with GraphPad Prism Software.

[1] = top of concentration-response curve not fitted to 100%
[2] = top of concentration-response curve not fitted to 100%, read-out: HEK assay EC50-unconstrained

## O=c1[nH]c(-c2nn(Cc3ccccc3F)c(-c3ccon3)c2F)ncc1F [Compound 3]
[1]
  Emax: ≥ 120%
  HEK MEC-10: D (1 to <10 μM)
read-out: HEK assay EC50
  EC50: < 20 µM
[2]
  EC50: 10 to 50 µM

## Oc1nc(-c2cc(-c3ccon3)n(Cc3ccccc3F)n2)ncc1Sc1ccc(F)cc1 [Compound 4, 2-(1-(2-fluorobenzyl)-5-(isoxazol-3-yl)-1H-pyrazol-3-yl)-5-(4-fluorophenylthio)pyrimidin-4-ol]
[1]
  Emax: 60 to 80%
  HEK MEC-10: C (0.1 to <1 μM)
read-out: HEK assay EC50
  EC50: < 20 µM
[2]
  EC50: 1 to 5 µM

## CC1(C(=O)Oc2cnc(-c3cc(-c4ccon4)n(Cc4ccccc4F)n3)nc2N)CC1 [Compound 5]
[1]
  Emax: 80 to 100%
  HEK MEC-10: C (0.1 to <1 μM)
read-out: HEK assay EC50
  EC50: < 20 µM
[2]
  EC50: 10 to 50 µM

## Oc1nc(-c2cc(-c3ccon3)n(Cc3ccccc3F)n2)ncc1Sc1ccc(Cl)cc1 [Compound 6, 5-(4-chlorophenylthio)-2-(1-(2-fluorobenzyl)-5-(isoxazol-3-yl)-1H-pyrazol-3-yl)pyrimidin-4-ol]
[1]
  Emax: 60 to 80%
  HEK MEC-10: C (0.1 to <1 μM)
read-out: HEK assay EC50
  EC50: < 20 µM
[2]
  EC50: 1 to 5 µM

## Oc1nc(-c2cc(-c3ncco3)n(Cc3ccccc3F)n2)ncc1Sc1ccccn1 [Compound 7, 2-(1-(2-fluorobenzyl)-5-(oxazol-2-yl)-1H-pyrazol-3-yl)-5-(pyridin-2-ylthio)pyrimidin-4-ol]
[1]
  Emax: 60 to 80%
  HEK MEC-10: B (0.01 to <0.1 μM)
read-out: HEK assay EC50
  EC50: < 20 µM
[2]
  EC50: 0.01 to 0.5 µM

## Nc1nc(-c2cc(-c3ccon3)n(Cc3ccccc3F)n2)ncc1NC(=O)C1(c2ccccc2F)CC1 [Compound 9]
[1]
  Emax: 60 to 80%
  HEK MEC-10: B (0.01 to <0.1 μM)
read-out: HEK assay EC50
  EC50: < 20 µM
[2]
  EC50: 0.01 to 0.5 µM

## Nc1nc(-c2cc(-c3ccon3)n(Cc3ccccc3F)n2)ncc1NC(=O)C1(c2cccc(F)c2)CC1 [Compound 11]
[1]
  Emax: 60 to 80%
  HEK MEC-10: B (0.01 to <0.1 μM)
read-out: HEK assay EC50
  EC50: < 20 µM
[2]
  EC50: 0.01 to 0.5 µM

## COc1ccc(C2(C(=O)Nc3cnc(-c4cc(-c5ccon5)n(Cc5ccccc5F)n4)nc3N)CC2)cc1 [Compound 12]
[1]
  Emax: 60 to 80%
  HEK MEC-10: B (0.01 to <0.1 μM)
read-out: HEK assay EC50
  EC50: < 20 µM
[2]
  EC50: 0.01 to 0.5 µM

## Nc1nc(-c2cc(-c3ccon3)n(Cc3ccccc3F)n2)ncc1NC(=O)C1(c2ccc(F)cc2)CC1 [Compound 13]
[1]
  Emax: 80 to 100%
  HEK MEC-10: B (0.01 to <0.1 μM)
read-out: HEK assay EC50
  EC50: < 20 µM
[2]
  EC50: 0.01 to 0.5 µM

## CN(C1CC1)S(=O)(=O)c1cnc(-c2cc(-c3ccon3)n(Cc3ccccc3F)n2)[nH]c1=O [Compound 14]
[1]
  Emax: 40 to 60%
  HEK MEC-10: B (0.01 to <0.1 μM)
read-out: HEK assay EC50
  EC50: < 20 µM
[2]
  EC50: 0.01 to 0.5 µM

## Nc1ccnc(-c2cc(-c3ccon3)n(Cc3c(F)ccc(F)c3F)n2)n1 [Compound 15]
[1]
  Emax: 20 to 40%
  HEK MEC-10: D (1 to <10 μM)
read-out: HEK assay EC50
  EC50: 40 to 60 µM
[2]
  EC50: 1 to 5 µM

## CN(Cc1ccccc1)S(=O)(=O)c1cnc(-c2cc(-c3ccon3)n(Cc3ccccc3F)n2)[nH]c1=O [Compound 16]
[1]
  Emax: 60 to 80%
  HEK MEC-10: C (0.1 to <1 μM)
read-out: HEK assay EC50
  EC50: < 20 µM
[2]
  EC50: 0.5 to 1 µM

## Oc1nc(-c2cc(-c3ccon3)n(Cc3ccccc3F)n2)ncc1Sc1ccc(C(F)(F)F)cc1 [Compound 17, 2-(1-(2-fluorobenzyl)-5-(isoxazol-3-yl)-1H-pyrazol-3-yl)-5-(4-(trifluoromethyl)phenylthio)pyrimidin-4-ol]
read-out: HEK assay EC50
  EC50: 1200 to 7000 µM

## Oc1nc(-c2cc(-c3ccon3)n(Cc3ccccc3F)n2)ncc1Sc1ccccn1 [Compound 18, 2-(1-(2-fluorobenzyl)-5-(isoxazol-3-yl)-1H-pyrazol-3-yl)-5-(pyridin-2-ylthio)pyrimidin-4-ol]
[1]
  Emax: 60 to 80%
  HEK MEC-10: C (0.1 to <1 μM)
read-out: HEK assay EC50
  EC50: 20 to 40 µM
[2]
  EC50: 10 to 50 µM

## O=c1[nH]c(-c2cc(-c3ccon3)n(Cc3c(F)ccc(F)c3F)n2)ncc1F [Compound 19, 5-fluoro-2-(5-(isoxazol-3-yl)-1-(2,3,6-trifluorobenzyl)-1H-pyrazol-3-yl)pyrimidin-4-ol]
[1]
  Emax: 20 to 40%
  HEK MEC-10: D (1 to <10 μM)
read-out: HEK assay EC50
  EC50: 40 to 60 µM
[2]
  EC50: 0.5 to 1 µM

## Oc1nc(-c2cc(-c3ncco3)n(Cc3ccccc3F)n2)ncc1Sc1ccccc1 [Compound 20, 2-(1-(2-fluorobenzyl)-5-(oxazol-2-yl)-1H-pyrazol-3-yl)-5-(phenylthio)pyrimidin-4-ol]
[1]
  Emax: 40 to 60%
  HEK MEC-10: C (0.1 to <1 μM)
read-out: HEK assay EC50
  EC50: 20 to 40 µM
[2]
  EC50: 1 to 5 µM

## O=c1[nH]c(-c2cc(-c3ccon3)n(Cc3ccccc3F)n2)ncc1S(=O)(=O)N1CCCC1 [Compound 21]
[1]
  Emax: 60 to 80%
  HEK MEC-10: C (0.1 to <1 μM)
read-out: HEK assay EC50
  EC50: < 20 µM
[2]
  EC50: 0.5 to 1 µM

## CN(C)S(=O)(=O)c1cnc(-c2cc(-c3ccon3)n(Cc3ccccc3F)n2)[nH]c1=O [Compound 22]
[1]
  Emax: 80 to 100%
  HEK MEC-10: D (1 to <10 μM)
read-out: HEK assay EC50
  EC50: < 20 µM
[2]
  EC50: 1 to 5 µM

## Fc1cnccc1Cn1nc(-c2ncccn2)cc1-c1ccon1 [Compound 23]
  HEK MEC-10: E (10 to 50 μM)

## CN(c1ccccc1)S(=O)(=O)c1cnc(-c2cc(-c3ccon3)n(Cc3ccccc3F)n2)[nH]c1=O [Compound 25]
[1]
  Emax: 60 to 80%
  HEK MEC-10: C (0.1 to <1 μM)
read-out: HEK assay EC50
  EC50: < 20 µM
[2]
  EC50: 0.5 to 1 µM

## Fc1ccccc1Cn1nc(-c2ncc(F)c(Cl)n2)cc1-c1ccon1 [Compound 30, 3-(3-(4-chloro-5-fluoropyrimidin-2-yl)-1-(2-fluorobenzyl)-1H-pyrazol-5-yl)isoxazole]
[1]
  Emax: 60 to 80%
  HEK MEC-10: D (1 to <10 μM)
read-out: HEK assay EC50
  EC50: < 20 µM
[2]
  EC50: 1 to 5 µM

## N#CC1(C(=O)Nc2cnc(-c3cc(-c4ccon4)n(Cc4cccc(F)c4F)n3)nc2N)CC1 [Compound 36]
[1]
  Emax: 40 to 60%
  HEK MEC-10: D (1 to <10 μM)
read-out: HEK assay EC50
  EC50: < 20 µM
[2]
  EC50: 0.01 to 0.5 µM

## Nc1ccnc(-c2cc(-c3ccon3)n(Cc3cccc(F)c3F)n2)n1 [Compound 37]
[1]
  Emax: 80 to 100%
  HEK MEC-10: C (0.1 to <1 μM)
read-out: HEK assay EC50
  EC50: 20 to 40 µM
[2]
  EC50: 10 to 50 µM

## Oc1nc(-c2cc(-c3cocn3)n(Cc3ccccc3F)n2)ncc1F [Compound 48]
[1]
  Emax: 60 to 80%
  HEK MEC-10: C (0.1 to <1 μM)
read-out: HEK assay EC50
  EC50: < 20 µM
[2]
  EC50: 1 to 5 µM

## Fc1ccccc1Cn1nc(-c2ncc(Br)c(OCc3ccccc3)n2)cc1-c1ccon1 [Compound 50]
read-out: HEK assay EC50
  EC50: 1200 to 7000 µM
